{"source": "patent US10968183B2", "about": "“Small molecule FIEL1 inhibitor in inflammatory and fibrotic lung injury” (UNIVERSITY OF PITTSBURGH—OF THE COMMONWEALTH SYSTEM OF …, priority 2015, dated 2021)", "key": {"FIEL1": {"target": "T1, FIEL1 (Mus musculus, UniProt Q8CHG5)", "T1 construct": "endogenous in cells; host or cells: MLE (murine lung epithelial) cells", "T1 sequence (Q8CHG5 1-789)": "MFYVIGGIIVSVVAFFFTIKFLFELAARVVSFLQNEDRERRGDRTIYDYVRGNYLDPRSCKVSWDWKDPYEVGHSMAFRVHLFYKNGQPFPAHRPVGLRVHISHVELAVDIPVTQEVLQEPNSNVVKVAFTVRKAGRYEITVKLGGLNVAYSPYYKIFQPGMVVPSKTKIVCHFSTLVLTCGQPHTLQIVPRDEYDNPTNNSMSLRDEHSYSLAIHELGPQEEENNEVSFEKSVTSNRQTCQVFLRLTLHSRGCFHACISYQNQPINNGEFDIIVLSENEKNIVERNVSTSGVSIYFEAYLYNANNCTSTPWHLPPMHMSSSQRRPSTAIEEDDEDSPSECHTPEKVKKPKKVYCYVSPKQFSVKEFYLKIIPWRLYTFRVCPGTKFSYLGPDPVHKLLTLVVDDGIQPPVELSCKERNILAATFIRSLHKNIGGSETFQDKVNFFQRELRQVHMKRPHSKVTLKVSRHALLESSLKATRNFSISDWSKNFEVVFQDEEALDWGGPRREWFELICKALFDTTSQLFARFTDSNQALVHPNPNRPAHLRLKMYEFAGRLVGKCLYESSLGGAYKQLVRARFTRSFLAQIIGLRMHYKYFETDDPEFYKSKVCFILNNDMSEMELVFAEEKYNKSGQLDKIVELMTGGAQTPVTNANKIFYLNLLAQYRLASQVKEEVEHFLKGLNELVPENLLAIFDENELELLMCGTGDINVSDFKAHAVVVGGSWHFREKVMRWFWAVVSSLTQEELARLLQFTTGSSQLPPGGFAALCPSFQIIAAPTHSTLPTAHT", "assay": "PIAS4 protein immunoblot in MLE cells exposed to compounds", "assay_type": "cell-based, murine", "conditions": "18 h, FIG. 7D", "experimental": "FIG. 7A. […] FIG. 7B. Structures of the BC-1480 backbone and lead compound BC-1485. FIG. 7C. FIEL1 protein was HIS-purified from FIEL1 expression in 293T cells using cobalt beads. Beads were then extensively washed prior to exposure to BC-1480 or BC-1485 at different concentrations (10^−4 to 100 μM). Purified PIAS4 protein was then incubated with drug-bound FIEL1 beads overnight. Beads were washed, and proteins were eluted and resolved on SDS-PAGE. The relative amounts of PIAS4 detected in the pull-downs was normalized to loading and quantified (n=2). FIG. 7D. MLE cells were exposed to BC-1480 or BC-1485 at various concentrations for 18 h. Cells were then collected and immunoblotted. FIGS. 7E-J. C57BL/6J mice were administered with bleomycin (0.05 U) for 7-21 days. Compounds BC-1480 and BC-1485 were given to mice through drinking water with an estimated dose of 5 mg/kg/d. Mice were euthanized, and lungs were lavaged with saline, harvested, and then homogenized. Lavage proteins, CXCL1, and total cell count were measured in FIGS. 7E-G. H. Survival studies of mice that were given bleomycin and compound treatments. Mice were carefully monitored over time; moribund, preterminal animals were immediately euthanized and recorded as deceased. […] Hydroxyproline contents were measured in lungs from 7, 14, and 21d after bleomycin challenge. […]"}, "[1]": {"tested_on": "α-SMA expression in MRC5 cells", "assay": "α-SMA expression in MRC5 cells co-treated with TGFβ", "assay_type": "cell-based, human", "experimental": "FIG. 15A. Diagram of the BC-1485 synthesis process. FIGS. 15B-15C. Docking studies of the lead compound, BC-1485, interacting with the FIEL1-HECT domain. FIG. 15D. MRC5 cells were treated with the compound at various doses; cells were also co-treated with TGFβ at 2 ng/ml. 18 h later, cells were collected and assayed for α-SMA expression. FIG. 15E. MRC5 cells were seeded in 35 mm glass bottom dishes before co-treatment with TGFβ at 2 ng/ml and BC-1480 or BC1485 at 5μM. FIG. 15F. PIAS4 protein half-life determination after BC-1480 or BC1485 treatment at 5μM for 18 h. FIG. 15G. PIAS4 and KIAA0317 mRNA analysis after BC1485 treatment for 18 h.\nMLE cells were cultured in Dulbecco's Modified Eagle Medium-F12 (Gibco) supplemented with 10% fetal bovine serum (DMEM-10). 293T cells were cultured in Dulbecco's Modified Eagle Medium (Gibco) supplemented with 10% fetal bovine serum (DMEM-10). MRC5 cells were cultured in Eagle's Minimum Essential Medium (Gibco) supplemented with 10% fetal bovine serum (EMEM-10). For protein expression in MLE cells, nucleofection was used following Amaxa's protocol. For protein overexpression in 293T cells, Fugene6HD transfection reagents were used following the manufacturer's protocol. For protein expression in MRC5 cells, MRC-5 Cell Avalanche™ Transfection Reagent was used following manufacturer's protocol. Cells were treated with TGFβ at 0-2 ng/ml for 0-18 h. For FIEL1, PKCξ, or GSK3β knockdown studies in cells, scramble shRNA, KIAA0317, PKCξ, or GSK3β shRNA were used to transfect cells for 48 h. For drug treatment, compounds were solubilized in DMSO before being added to the cells for up to 18 h. Cell lysates were prepared by brief sonication in 150 mM NaCl, 50 mM Tris, 1.0 mM EDTA, 2 mM dithiothreitol, 0.025% sodium azide, and 1 mM phenylmethylsulfonyl fluoride (Buffer A) at 4° C. For half-life study, MLE cells were exposed to cycloheximide (40 μg/ml) in a time dependent manner for up to 8 h. Cells were then collected and immunoblotted."}}, "data": [{"smiles": "CC(NC(=O)c1ccc(NS(=O)(=O)c2ccc3[nH]c(=O)[nH]c3c2)cc1)C(=O)N(C)C", "note": "(stereo not drawn) [BC-1485]", "values": [{"measurement": "activity in increasing PIAS4 protein levels compared to BC-1480", "setting": "FIEL1", "value": "> 100", "unit": "fold"}, {"measurement": "inhibition of TGFβ pathway", "setting": "[1]; FIG. 15", "value": "inhibition of TGFβ pathway"}, {"measurement": "IC50", "setting": "[1]; MRC5 cells, TGFβ 2 ng/ml, 18 h, FIG. 15D, read-out: IC50 for decrease of α-SMA expression", "value": "~32", "unit": "nM"}]}]}
